Experiment: Stability of diaryliodonium salt precursors under heating and base conditions (HPLC of by-products I-mazenil and H-mazenil)
Format: physicochemical
Settings: for relative instability of precursor (stability of 8f set forth to be 1.00): 150° C., 15 min, K2.2.2./K2CO3 in dimethylformamide, without fluorine-18, ratio relative to 8f (FIG. 6)
Protocol: Contrary to the expectation that the diaryliodonium salt precursors (8b to 8e) could be labeled at higher yields than precursor 8a thanks to their higher electron densities, a lower labeling yield of fluorine18 was detected for them at high temperatures in the presence of a base. This might be accounted by the significance of the stability of the precursors. To verify this, the precursors were analyzed for stability in the […] to examine the reactivity of each precursor. In the following Reaction Scheme 2, the degradation of each diaryliodonium salt precursor in the presence of base under a heating condition is illustrated. As shown, two compounds I-mazenil (9) and H-mazenil (10) are formed, and their concentrations reflect the stability of the diaryliodonium salt precursor.
The diaryliodonium salt precursors whose aromatic rings are richer in electron density, compared to phenyl-mazenil-iodonium salt (8a), are more apt to be affected by the reaction conditions for aromatic fluorination with fluorine-18. […] To examine the selectivity and stability of the diaryliodonium salts, the production of the by-products I-mazenil (9) and H-mazenil(10) which are degraded from the precursors due to their instability in a condition free of fluorine-18 was analyzed using HPLC. […]
After each diaryliodonium salt precursor was thermally treated 150° C. for 15 min in the presence of kryptofix2.2.2./potassium carbonate (K2.2.2./K2CO3) in dimethylformamide, without fluorine-18, measurement was made of the concentrations of 1-mazenil (9) and H-mazenil (10) to evaluate the stability of each precursor (FIG. 6). In addition, the labeling reactivity of the diaryliodonium salt precursors into [19F]flumazenil was assessed by reacting them with cesium fluoride at 90° C. for 120 min in dimethylformamide (FIG. 7). […]

Compound	relative instability of precursor (stability of 8f set forth to be 1.00)	stability among the diaryliodonium salt precursors (potassium carbonate and 150° C., similar results with TBAHCO3 and TBAOH (FIG. 6))
CCOC(=O)c1ncn2c1CN(C)C(=O)c1cc([I+]c3ccccc3)ccc1-2.Cc1ccc(S(=O)(=O)[O-])cc1 [Precursor 8a, ethyl 8-phenyl(iodonium tosylate)-5,6-dihydro-5-methyl-6-oxo-4H-imidazo[1,5-a][1,4]benzodiazepine-3-carboxylate]	1.11	–
CCOC(=O)c1ncn2c1CN(C)C(=O)c1cc([I+]c3ccc(C)cc3)ccc1-2.Cc1ccc(S(=O)(=O)[O-])cc1 [Precursor 8f, ethyl 8-(4-methylphenyl)(iodonium tosylate)-5,6-dihydro-5-methyl-6-oxo-4H-imidazo[1,5-a][1,4]benzodiazepine-3-carboxylate]	1.00	the most stable
